Assay results as given in ChEMBL document CHEMBL2396590, “Inhibition of HIV-1 integrase dimerization and activity with crosslinked interfacial peptides” (Bioorg Med Chem, 2013).
Calls of active or inactive are those of the source. The rule behind the calls is not given here. Starred links: 1 amine or outer side, 2 acyl side, 3 side chain; linkers in the order of their positions; H or OH if unused. Non-standard residues stand in square brackets, D forms with d. Residues, ends and D or L forms follow the SMILES beside them. NH(CH2)9CO = O=C(CCCCCCCCCN[*:1])[*:2]; NH(CH2)8CO = O=C(CCCCCCCCN[*:1])[*:2]; X2 = O=C(C1CCCC(CN[*:1])C1)[*:2]; X1 = O=C(CN1CCN([*:1])CC1)[*:2]; X4 = O=C(CCC(=O)[*:2])CN[*:1]; 12Ado = NCCCCCCCCCCCC(=O)O; Aun = NCCCCCCCCCCC(=O)O; AEEA = NCCOCCOCC(=O)O; Aoc = NCCCCCCCC(=O)O

How the values were obtained:
[1] = tested on: Human immunodeficiency virus type 1 integrase (Human immunodeficiency virus 1), Q7ZJM1 [F185K,C280S]; experiment: Inhibition of HIV1 integrase F185K/C280S double mutant dimerization expressed in Escherichia coli BL21 (DE3) at 110 uM after 1 hr by PAGE analysis
[2] = molecular target: Human immunodeficiency virus type 1 integrase (Human immunodeficiency virus 1, UniProt Q7ZJM1, C280S/F185K); experiment: Inhibition of HIV1 3'-processing activity of integrase F185K/C280S double mutant expressed in Escherichia coli BL21 (DE3)

Row | SMILES | inhibition [1] | IC50 [2]
1 | CC[C@H](C)[C@H](NC(=O)[C@H](CC(=O)O)NC(=O)[C@@H](NC(=O)[C@H](C)NC(=O)[C@@H](NC(=O)[C@@H](NC(=O)[C@H](CC(=O)O)NC(=O)[C@@H](NC(=O)[C@@H](NC(=O)[C@H](CCCNC(=N)N)NC(=O)[C@H](CCC(=O)O)NC(=O)CNC(=O)[C@H](C)NC(=O)CCCCCCCNC(=O)[C@H](CCCNC(=N)N)NC(=O)[C@H](CCCCN)NC(=O)[C@H](Cc1ccccc1)NC(=O)[C@H](CC(N)=O)NC(=O)[C@H](Cc1cnc[nH]1)NC(=O)[C@@H](NC(=O)[C@H](Cc1ccccc1)NC(=O)[C@@H](NC(=O)[C@H](C)NC(=O)[C@H](CCSC)NC(=O)[C@H](CCC(N)=O)NC(=O)[C@@H](NC(=O)[C@H](C)NC(=O)[C@@H](NC(=O)[C@H](CCCCN)NC(=O)[C@H](CC(C)C)NC(=O)[C@@H](N)Cc1cnc[nH]1)[C@@H](C)O)C(C)C)C(C)C)[C@@H](C)CC)[C@@H](C)CC)C(C)C)[C@@H](C)CC)[C@@H](C)CC)[C@@H](C)O)C(=O)N[C@@H](CCC(N)=O)C(N)=O (H-HLKTAVQMAVFIHNFKR[Aoc]AGERIVDIIATDIQ-NH2) | Active | 680 nM
2 | CC[C@H](C)[C@H](NC(=O)[C@H](CC(=O)O)NC(=O)[C@@H](NC(=O)[C@H](C)NC(=O)[C@@H](NC(=O)[C@@H](NC(=O)[C@H](CC(=O)O)NC(=O)[C@@H](NC(=O)[C@@H](NC(=O)[C@H](CCCNC(=N)N)NC(=O)[C@H](CCC(=O)O)NC(=O)CNC(=O)[C@H](C)NC(=O)C1CCCC(CNC(=O)[C@H](CCCNC(=N)N)NC(=O)[C@H](CCCCN)NC(=O)[C@H](Cc2ccccc2)NC(=O)[C@H](CC(N)=O)NC(=O)[C@H](Cc2cnc[nH]2)NC(=O)[C@@H](NC(=O)[C@H](Cc2ccccc2)NC(=O)[C@@H](NC(=O)[C@H](C)NC(=O)[C@H](CCSC)NC(=O)[C@H](CCC(N)=O)NC(=O)[C@@H](NC(=O)[C@H](C)NC(=O)[C@@H](NC(=O)[C@H](CCCCN)NC(=O)[C@H](CC(C)C)NC(=O)[C@@H](N)Cc2cnc[nH]2)[C@@H](C)O)C(C)C)C(C)C)[C@@H](C)CC)C1)[C@@H](C)CC)C(C)C)[C@@H](C)CC)[C@@H](C)CC)[C@@H](C)O)C(=O)N[C@@H](CCC(N)=O)C(N)=O (stereo partly drawn) (H-HLKTAVQMAVFIHNFKR[X2]AGERIVDIIATDIQ-NH2) | Active | 1000 nM
3 | CC[C@H](C)[C@H](NC(=O)[C@H](CC(=O)O)NC(=O)[C@@H](NC(=O)[C@H](C)NC(=O)[C@@H](NC(=O)[C@@H](NC(=O)[C@H](CC(=O)O)NC(=O)[C@@H](NC(=O)[C@@H](NC(=O)[C@H](CCCNC(=N)N)NC(=O)[C@H](CCC(=O)O)NC(=O)CNC(=O)[C@H](C)NC(=O)CCCCCCCCCCNC(=O)[C@H](CCCNC(=N)N)NC(=O)[C@H](CCCCN)NC(=O)[C@H](Cc1ccccc1)NC(=O)[C@H](CC(N)=O)NC(=O)[C@H](Cc1cnc[nH]1)NC(=O)[C@@H](NC(=O)[C@H](Cc1ccccc1)NC(=O)[C@@H](NC(=O)[C@H](C)NC(=O)[C@H](CCSC)NC(=O)[C@H](CCC(N)=O)NC(=O)[C@@H](NC(=O)[C@H](C)NC(=O)[C@@H](NC(=O)[C@H](CCCCN)NC(=O)[C@H](CC(C)C)NC(=O)[C@@H](N)Cc1cnc[nH]1)[C@@H](C)O)C(C)C)C(C)C)[C@@H](C)CC)[C@@H](C)CC)C(C)C)[C@@H](C)CC)[C@@H](C)CC)[C@@H](C)O)C(=O)N[C@@H](CCC(N)=O)C(N)=O (H-HLKTAVQMAVFIHNFKR[Aun]AGERIVDIIATDIQ-NH2) | Active | 850 nM
4 | CC[C@H](C)[C@H](NC(=O)[C@H](CC(=O)O)NC(=O)[C@@H](NC(=O)[C@H](C)NC(=O)[C@@H](NC(=O)[C@@H](NC(=O)[C@H](CC(=O)O)NC(=O)[C@@H](NC(=O)[C@@H](NC(=O)[C@H](CCCNC(=N)N)NC(=O)[C@H](CCC(=O)O)NC(=O)CNC(=O)[C@H](C)NC(=O)CCCCCCCCCCCNC(=O)[C@H](CCCNC(=N)N)NC(=O)[C@H](CCCCN)NC(=O)[C@H](Cc1ccccc1)NC(=O)[C@H](CC(N)=O)NC(=O)[C@H](Cc1cnc[nH]1)NC(=O)[C@@H](NC(=O)[C@H](Cc1ccccc1)NC(=O)[C@@H](NC(=O)[C@H](C)NC(=O)[C@H](CCSC)NC(=O)[C@H](CCC(N)=O)NC(=O)[C@@H](NC(=O)[C@H](C)NC(=O)[C@@H](NC(=O)[C@H](CCCCN)NC(=O)[C@H](CC(C)C)NC(=O)[C@@H](N)Cc1cnc[nH]1)[C@@H](C)O)C(C)C)C(C)C)[C@@H](C)CC)[C@@H](C)CC)C(C)C)[C@@H](C)CC)[C@@H](C)CC)[C@@H](C)O)C(=O)N[C@@H](CCC(N)=O)C(N)=O (H-HLKTAVQMAVFIHNFKR[12Ado]AGERIVDIIATDIQ-NH2) | Active | 1300 nM
5 | CC[C@H](C)[C@H](NC(=O)[C@H](CC(=O)O)NC(=O)[C@@H](NC(=O)[C@H](C)NC(=O)[C@@H](NC(=O)[C@@H](NC(=O)[C@H](CC(=O)O)NC(=O)[C@@H](NC(=O)[C@@H](NC(=O)[C@H](CCCNC(=N)N)NC(=O)[C@H](CCC(=O)O)NC(=O)CNC(=O)[C@H](C)NC(=O)CN1CCN(C(=O)[C@H](CCCNC(=N)N)NC(=O)[C@H](CCCCN)NC(=O)[C@H](Cc2ccccc2)NC(=O)[C@H](CC(N)=O)NC(=O)[C@H](Cc2cnc[nH]2)NC(=O)[C@@H](NC(=O)[C@H](Cc2ccccc2)NC(=O)[C@@H](NC(=O)[C@H](C)NC(=O)[C@H](CCSC)NC(=O)[C@H](CCC(N)=O)NC(=O)[C@@H](NC(=O)[C@H](C)NC(=O)[C@@H](NC(=O)[C@H](CCCCN)NC(=O)[C@H](CC(C)C)NC(=O)[C@@H](N)Cc2cnc[nH]2)[C@@H](C)O)C(C)C)C(C)C)[C@@H](C)CC)CC1)[C@@H](C)CC)C(C)C)[C@@H](C)CC)[C@@H](C)CC)[C@@H](C)O)C(=O)N[C@@H](CCC(N)=O)C(N)=O (H-HLKTAVQMAVFIHNFKR[X1]AGERIVDIIATDIQ-NH2) | Active | 460 nM
6 | CC[C@H](C)[C@H](NC(=O)[C@H](CC(=O)O)NC(=O)[C@@H](NC(=O)[C@H](C)NC(=O)[C@@H](NC(=O)[C@@H](NC(=O)[C@H](CC(=O)O)NC(=O)[C@@H](NC(=O)[C@@H](NC(=O)[C@H](CCCNC(=N)N)NC(=O)[C@H](CCC(=O)O)NC(=O)CNC(=O)[C@H](C)NC(=O)COCCOCCNC(=O)[C@H](CCCNC(=N)N)NC(=O)[C@H](CCCCN)NC(=O)[C@H](Cc1ccccc1)NC(=O)[C@H](CC(N)=O)NC(=O)[C@H](Cc1cnc[nH]1)NC(=O)[C@@H](NC(=O)[C@H](Cc1ccccc1)NC(=O)[C@@H](NC(=O)[C@H](C)NC(=O)[C@H](CCSC)NC(=O)[C@H](CCC(N)=O)NC(=O)[C@@H](NC(=O)[C@H](C)NC(=O)[C@@H](NC(=O)[C@H](CCCCN)NC(=O)[C@H](CC(C)C)NC(=O)[C@@H](N)Cc1cnc[nH]1)[C@@H](C)O)C(C)C)C(C)C)[C@@H](C)CC)[C@@H](C)CC)C(C)C)[C@@H](C)CC)[C@@H](C)CC)[C@@H](C)O)C(=O)N[C@@H](CCC(N)=O)C(N)=O (H-HLKTAVQMAVFIHNFKR[AEEA]AGERIVDIIATDIQ-NH2) | Active | 1070 nM
7 | CC[C@H](C)[C@H](NC(=O)[C@H](CC(=O)O)NC(=O)[C@@H](NC(=O)[C@H](C)NC(=O)[C@@H](NC(=O)[C@@H](NC(=O)[C@H](CC(=O)O)NC(=O)[C@@H](NC(=O)[C@@H](NC(=O)[C@H](CCCNC(=N)N)NC(=O)[C@H](CCC(=O)O)NC(=O)CNC(=O)[C@H](C)NC(=O)CCCCCCCCNC(=O)[C@H](CCCNC(=N)N)NC(=O)[C@H](CCCCN)NC(=O)[C@H](Cc1ccccc1)NC(=O)[C@H](CC(N)=O)NC(=O)[C@H](Cc1cnc[nH]1)NC(=O)[C@@H](NC(=O)[C@H](Cc1ccccc1)NC(=O)[C@@H](NC(=O)[C@H](C)NC(=O)[C@H](CCSC)NC(=O)[C@H](CCC(N)=O)NC(=O)[C@@H](NC(=O)[C@H](C)NC(=O)[C@@H](NC(=O)[C@H](CCCCN)NC(=O)[C@H](CC(C)C)NC(=O)[C@@H](N)Cc1cnc[nH]1)[C@@H](C)O)C(C)C)C(C)C)[C@@H](C)CC)[C@@H](C)CC)C(C)C)[C@@H](C)CC)[C@@H](C)CC)[C@@H](C)O)C(=O)N[C@@H](CCC(N)=O)C(N)=O (H-HLKTAVQMAVFIHNFKR[NH(CH2)8CO]AGERIVDIIATDIQ-NH2) | Active | 720 nM
8 | CC[C@H](C)[C@H](NC(=O)[C@H](CC(=O)O)NC(=O)[C@@H](NC(=O)[C@H](C)NC(=O)[C@@H](NC(=O)[C@@H](NC(=O)[C@H](CC(=O)O)NC(=O)[C@@H](NC(=O)[C@@H](NC(=O)[C@H](CCCNC(=N)N)NC(=O)[C@H](CCC(=O)O)NC(=O)CNC(=O)[C@H](C)NC(=O)CCC(=O)CNC(=O)[C@H](CCCNC(=N)N)NC(=O)[C@H](CCCCN)NC(=O)[C@H](Cc1ccccc1)NC(=O)[C@H](CC(N)=O)NC(=O)[C@H](Cc1cnc[nH]1)NC(=O)[C@@H](NC(=O)[C@H](Cc1ccccc1)NC(=O)[C@@H](NC(=O)[C@H](C)NC(=O)[C@H](CCSC)NC(=O)[C@H](CCC(N)=O)NC(=O)[C@@H](NC(=O)[C@H](C)NC(=O)[C@@H](NC(=O)[C@H](CCCCN)NC(=O)[C@H](CC(C)C)NC(=O)[C@@H](N)Cc1cnc[nH]1)[C@@H](C)O)C(C)C)C(C)C)[C@@H](C)CC)[C@@H](C)CC)C(C)C)[C@@H](C)CC)[C@@H](C)CC)[C@@H](C)O)C(=O)N[C@@H](CCC(N)=O)C(N)=O (H-HLKTAVQMAVFIHNFKR[X4]AGERIVDIIATDIQ-NH2) | Active | 430 nM
9 | CC[C@H](C)[C@H](NC(=O)[C@H](CC(=O)O)NC(=O)[C@@H](NC(=O)[C@H](C)NC(=O)[C@@H](NC(=O)[C@@H](NC(=O)[C@H](CC(=O)O)NC(=O)[C@@H](NC(=O)[C@@H](NC(=O)[C@H](CCCNC(=N)N)NC(=O)[C@H](CCC(=O)O)NC(=O)CNC(=O)[C@H](C)NC(=O)CCCCCCCCCNC(=O)[C@H](CCCNC(=N)N)NC(=O)[C@H](CCCCN)NC(=O)[C@H](Cc1ccccc1)NC(=O)[C@H](CC(N)=O)NC(=O)[C@H](Cc1cnc[nH]1)NC(=O)[C@@H](NC(=O)[C@H](Cc1ccccc1)NC(=O)[C@@H](NC(=O)[C@H](C)NC(=O)[C@H](CCSC)NC(=O)[C@H](CCC(N)=O)NC(=O)[C@@H](NC(=O)[C@H](C)NC(=O)[C@@H](NC(=O)[C@H](CCCCN)NC(=O)[C@H](CC(C)C)NC(=O)[C@@H](N)Cc1cnc[nH]1)[C@@H](C)O)C(C)C)C(C)C)[C@@H](C)CC)[C@@H](C)CC)C(C)C)[C@@H](C)CC)[C@@H](C)CC)[C@@H](C)O)C(=O)N[C@@H](CCC(N)=O)C(N)=O (H-HLKTAVQMAVFIHNFKR[NH(CH2)9CO]AGERIVDIIATDIQ-NH2) | Active | 760 nM
